Test results from the METLIN SMRT retention time set (Domingo-Almenara et al. 2019).

Assay: gradient 5% acetonitrile 3 min, to 50% in 2 min, to 85% in 15 min, held 3 min, 100 µL/min
Details: column: Zorbax Extend-C18 2.1 x 50 mm; eluents: water / acetonitrile, 0.1% formic acid
How it was run: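 Pure standards were run in mixtures of ~100 molecules by HPLC coupled to a quadrupole time-of-flight mass spectrometer. The column was a Zorbax Extend-C18 (2.1 × 50 mm, 1.8 μm) at 100 μL/min, with water and acetonitrile each containing 0.1% formic acid, in positive and negative ionization mode. Dead and dwell volumes were 40 μL and 900 μL. Retention time was taken from computationally picked adduct peaks, each manually inspected, with data collected over 3 months.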

Row | Structure (SMILES) | RP-LC retention time
1 | CCOC(=O)c1c(C)[nH]c(C(=O)N2CCCC(C(=O)NCc3ccc(C)o3)C2)c1C (stereo not given) | 790 s
2 | O=C(NCc1ccc(F)cc1Cl)C1CCCN(c2nn3c(=O)c4c(nc3s2)CCCC4)C1 (stereo not given) | 827 s
3 | O=C(c1sc(N2CCCCC2)nc1-c1ccccc1)c1c[nH]c2ccccc12 | 1080 s
4 | Cc1ccn2cc(C(=O)NCc3ccccc3F)nc2c1 | 628 s
5 | CCOC(=O)N1CCN(c2nc(-c3cccc([N+](=O)[O-])c3)cs2)CC1 | 1080 s
6 | CCn1cc(C)c(C(=O)O)c1CC(=O)Nc1ccc(F)cc1F | 811 s
7 | Cc1noc(-c2ccc(OC3CN(C(=O)Cc4cccs4)C3)cc2)n1 | 857 s
8 | O=C(Cc1ccccc1Br)N1CCN(c2cc(-c3ccc(Cl)cc3)[nH]n2)CC1 | 939 s
9 | O=C(C1CCN(c2nc3ccc(-c4cccs4)nc3s2)CC1)N1CCCCC1 | 911 s
10 | CCc1nc(N)n(CC(=O)Nc2ccc(Cl)cc2)c(=O)c1C | 661 s
11 | COc1ccccc1NC(=O)N1CCC2(CC1)NC(=O)c1ccc(Cl)cc1N2 | 775 s
12 | CCc1ccc(NC(=O)Cn2nc3c(N(C)C4CCCCC4)nccn3c2=O)cc1 | 823 s
13 | CCOC(=O)C1CCN(C2=NS(=O)(=O)c3ccccc32)CC1 | 739 s
14 | CCCNC(=O)CC1CCN(C(=O)c2[nH]c(C)c(C(=O)OC(C)C)c2C)CC1 | 724 s
15 | O=C(Cn1nc(C(=O)N2CCCC2)c2ccccc21)NCc1cccs1 | 753 s
16 | Cc1cc(NC(=O)Cc2csc(NC(=O)c3ncccn3)n2)no1 | 591 s
17 | CCCN(CC1CCOC1)C(=O)Nc1cc(Cl)ccc1C (stereo not given) | 901 s
18 | CCOc1ccc(N2CCn3c2nn(Cc2cccc(C(F)(F)F)c2)c(=O)c3=O)cc1 | 915 s
19 | O=C(C1CCN(c2ncccc2-c2nc(-c3ccccc3)no2)CC1)N1CCOCC1 | 839 s
20 | O=C(Nc1cccc(-c2ccc(N3CCOCC3)nn2)c1)Nc1ccccc1F | 688 s
21 | Cc1ccc(CNS(=O)(=O)c2ccc3c(c2)C(=O)N(C)c2ncccc2O3)cc1C | 986 s
22 | CCC(C)N1C(=O)CN(C2CCCCCC2)C(=O)C1c1ccccc1F (stereo not given) | 1020 s
23 | Cc1noc(-c2nc(-c3cccc(Cl)c3)no2)n1 | 1070 s

Row | Structure (SMILES) | RP-LC retention time
24 | CCCNC(=O)C1CCCN(c2ccc(SCC(=O)Nc3ccc(C(F)(F)F)cc3)nn2)C1 (stereo not given) | 690 s
25 | COc1ccccc1NC(=O)Cn1cc(C(=O)N2CCCC2)c(=O)c2ccc(C)nc21 | 705 s
26 | CCOc1ccccc1NC(=O)C1CCCN1S(=O)(=O)c1cc2c(cc1C)NC(=O)C(C)O2 (stereo not given) | 784 s
27 | CCOc1nc2ccccc2nc1N1CCCC(C(=O)Nc2cccc(Cl)c2)C1 (stereo not given) | 1290 s
28 | CCCCN1CCN(C(=O)CCC2CCCN(c3cc(NC4CC4)ncn3)C2)CC1 (stereo not given) | 565 s
29 | O=C(Cc1c[nH]c2ccccc12)NCCc1c[nH]c2ccc(F)cc12 | 804 s
30 | O=C(Nc1ccccc1Br)c1ccc(OC(F)F)cc1 | 914 s
31 | CCOc1ccc(NC(=O)N2CCN(c3cc(C)nc(N4CCOCC4)n3)CC2)cc1 | 624 s
32 | COc1cc(OC)cc(C(=O)N(C)CCc2noc(C(=O)NCc3ccccc3)n2)c1 | 809 s
33 | CCN(CC)C(=O)c1ccc(-n2nc(C)c3c2CCCC3=O)cc1 | 691 s
34 | CCOC(=O)c1cccc(N2C=C(C#N)S(=O)(=O)c3cc(F)ccc32)c1 | 937 s
35 | COCCNC(=O)C1CCN(c2nc3ccc(-c4ccccc4)nc3s2)CC1 | 832 s
36 | CCN1CCC2(CC1)OC(=O)C(C)=C2C(=O)Nc1ccc(Br)cc1F | 650 s
37 | CCOc1ccccc1NC(=O)N1CCCC(Cn2cnc3cccnc32)C1 (stereo not given) | 723 s
38 | COC(=O)c1scc(-c2ccc(C)cc2)c1S(=O)(=O)N1CCC(C(N)=O)CC1 | 798 s
39 | O=C(NCC#CCN1CCc2ccccc2C1)c1ccc(Cl)s1 | 587 s
40 | CCOC(=O)c1ccc2nc(C(F)(F)F)nc(N3CCc4ccccc4C3)c2c1 | 1200 s
41 | COC(=O)c1nnn(-c2cc(Cl)ccc2OC)c1C(=O)OC | 898 s
42 | Cc1cccc(-c2nocc2CCC(=O)NC(C)c2ccc(F)cc2)c1 (stereo not given) | 965 s
43 | CCCn1cc(CCNC(=O)c2cncc(Br)c2)c2cccnc21 | 723 s
44 | CCOC(=O)c1[nH]c(C)c(CCC(=O)NCCN2CCOCC2)c1C | 597 s
45 | CN(CCCNC(=O)C1CCCN(c2ncnc3c2nc2n3CCCCC2)C1)Cc1ccccc1 (stereo not given) | 616 s
46 | CC(=O)N1CCN(c2nc3c(s2)CC(C(=O)N2CCCCCC2)CC3)CC1 (stereo not given) | 614 s

Row | Structure (SMILES) | RP-LC retention time
47 | COc1ccc(C2C(=O)N(C3CCC(C)CC3)CC(=O)N2Cc2ccco2)cc1OC (stereo not given) | 883 s
48 | CCOC(=O)CCC(=O)Nc1nnc2n1CCS2 | 558 s
49 | CN(C(=O)Cc1ccsc1)C1CCc2nn(C)c(=O)n2CC1 (stereo not given) | 600 s
50 | CCCC(=O)Nc1nc(-c2ccc3c(c2)N(C)C(=O)CO3)cs1 | 821 s
51 | COc1ncc(C(=O)NCc2ccc(Br)cc2)cn1 | 773 s
52 | COCCNc1nnc(-c2nc(-c3ccc(F)cc3)no2)c2ccccc12 | 801 s
53 | CN(C)c1ccc(CNC(=O)C2(c3ccc(NS(C)(=O)=O)cc3)CCCCC2)cc1 | 672 s
54 | O=C(Cc1csc(NC(=O)NC2CCCCC2)n1)NCCc1ccc(Cl)cc1 | 805 s
55 | CC1CCN(C(=O)C2CCN(S(=O)(=O)c3cc(C(=O)N4CCCC4)n(C)c3)CC2)CC1 | 750 s
56 | Cc1ccc(Nc2c(-c3cccc(Br)c3)nc3cc(C)ccn23)cc1 | 857 s
57 | CCS(=O)(=O)N1CC(=O)N(c2cccc(Cl)c2C)C(C)(C(=O)NCc2ccc(F)cc2)C1 (stereo not given) | 913 s
58 | O=C(NC1CCCCC1)c1cc2ccccc2cc1O | 1180 s
59 | O=C(Cn1ccnc1)N1CCCCC1c1nncn1Cc1ccccc1 (stereo not given) | 579 s
60 | CCOC(=O)c1csc(NC(=O)Nc2cccc(Cl)c2)n1 | 867 s
61 | O=c1c2cnc3nc(-c4ccccc4Cl)nn3c2ccn1CCc1c[nH]c2ccccc12 | 950 s
62 | O=C(Cn1nc(N2CCSCC2)c2ccccc2c1=O)Nc1cccc(C(F)(F)F)c1 | 1030 s
63 | CCn1cc(CCNC(=O)Nc2ccsc2C(=O)OC)c2cccnc21 | 762 s
64 | Cc1cc(C)cc(NC(=O)NC2CCN(c3cc(N4CCCC4)cnn3)C2)c1 (stereo not given) | 690 s
65 | CCn1c(SC)nnc1-c1nn(C)c2c1CN(C(=O)c1ccccc1)CC2 | 740 s
66 | CC(C)n1c(CCNC(=O)c2ccccc2)nc2cccnc21 | 640 s
67 | Cc1cc(C)cc(N2CCC(NC(=O)NCc3cccc(F)c3)C2=O)c1 (stereo not given) | 851 s
68 | CCN1CCCC1CNC(=O)c1nc(-c2oc3c(C)cccc3c2C)no1 (stereo not given) | 670 s
69 | COCCN1C(=O)CCC2(CNC(=O)c3cnc(C)cn3)CCC=C12 (stereo not given) | 676 s

Row | Structure (SMILES) | RP-LC retention time
70 | O=C(Cn1c(=O)c2cccn2c2ccc(F)cc21)N1CCN(C(=O)c2ccco2)CC1 | 706 s
71 | Cc1ccn2cc(-c3ccc(NC(=O)c4ccccc4)cc3)nc2n1 | 636 s
72 | Cc1ccc(C)c(S(=O)(=O)Nc2ccc(Cn3cncn3)cc2)c1 | 725 s
73 | CCc1sc(NC(=O)Cc2c(F)cccc2Cl)nc1-c1ccccc1 | 1150 s
74 | COc1ccccc1Nc1c(-c2ccc(C)cc2)nc2cnccn12 | 954 s
75 | O=S(=O)(c1ccccc1)N1CC2CN(S(=O)(=O)c3cccc(F)c3)CC(C1)O2 | 905 s
76 | CCC(=O)Nc1ccc(CCc2nc3ccc(C(=O)NCc4ccc(SC)cc4)cc3[nH]2)cc1 | 683 s
77 | O=C(Cn1nc2c(Oc3ccccc3)nccn2c1=O)NCCCc1ccccc1 | 871 s
78 | COc1cccc(-c2cc(N3CCN(C(=O)Nc4ccc5c(c4)OCCO5)CC3)ncn2)c1 | 660 s
79 | COc1ccc(CNC(=O)C2CCN(S(C)(=O)=O)c3ccccc3O2)cc1 (stereo not given) | 810 s
80 | COc1cc(CN2C[C@@H]3C(=O)N(C)C(=O)[C@@H]3C2)cc(OC)c1 | 585 s
81 | CCn1nccc1-c1cccc(-c2noc(CCS(=O)(=O)c3ccc(C)cc3)n2)c1 | 993 s
82 | COc1ccc(C2Cn3nnc(-c4nc(-c5ccc(F)c(F)c5)no4)c3CO2)cc1 (stereo not given) | 1180 s
83 | O=C(NCc1csc(-c2ccccc2)n1)C1CCN(S(=O)(=O)c2ccc(Cl)s2)CC1 | 995 s
84 | Cc1ccc(-c2cc(NC(=O)C3CC3)on2)s1 | 869 s
85 | COC(=O)c1ccc(NC(=O)Cn2cnc3nc(N4CCCC4)ncc3c2=O)cc1 | 690 s
86 | O=C(c1ccccc1Sc1nccnc1Oc1ccccc1)N1CCOCC1 | 859 s
87 | O=[N+]([O-])c1c(-c2nc3ccc(Cl)cn3c2Nc2ccc(Cl)cc2)ccc2c1OCO2 | 1000 s
88 | COC(=O)c1ccsc1NC(=O)CS(=O)(=O)Cc1ccccc1 | 823 s
89 | COc1cc(OC)cc(-c2nnc(Cc3nc(-c4ccc(Cl)cc4)no3)o2)c1 | 1110 s
90 | Cc1nc(-c2cc(S(=O)(=O)NCc3cc(F)cc(F)c3)c(C)s2)cs1 | 994 s
